Assay results from ChEMBL document CHEMBL1201862, “PubChem BioAssay data set” (2004).
Activity calls are given as the source filed them.

How the values were obtained:
[1] = biological target: T1, Replicative DNA helicase DnaB (Mycobacterium tuberculosis, UniProt P9WMR3); experiment: DnaB intein splicing inhibitors, dose response, biochemical, cell-free fluorescence (AID 449749); type: functional
T1 sequence (P9WMR3 whole entry): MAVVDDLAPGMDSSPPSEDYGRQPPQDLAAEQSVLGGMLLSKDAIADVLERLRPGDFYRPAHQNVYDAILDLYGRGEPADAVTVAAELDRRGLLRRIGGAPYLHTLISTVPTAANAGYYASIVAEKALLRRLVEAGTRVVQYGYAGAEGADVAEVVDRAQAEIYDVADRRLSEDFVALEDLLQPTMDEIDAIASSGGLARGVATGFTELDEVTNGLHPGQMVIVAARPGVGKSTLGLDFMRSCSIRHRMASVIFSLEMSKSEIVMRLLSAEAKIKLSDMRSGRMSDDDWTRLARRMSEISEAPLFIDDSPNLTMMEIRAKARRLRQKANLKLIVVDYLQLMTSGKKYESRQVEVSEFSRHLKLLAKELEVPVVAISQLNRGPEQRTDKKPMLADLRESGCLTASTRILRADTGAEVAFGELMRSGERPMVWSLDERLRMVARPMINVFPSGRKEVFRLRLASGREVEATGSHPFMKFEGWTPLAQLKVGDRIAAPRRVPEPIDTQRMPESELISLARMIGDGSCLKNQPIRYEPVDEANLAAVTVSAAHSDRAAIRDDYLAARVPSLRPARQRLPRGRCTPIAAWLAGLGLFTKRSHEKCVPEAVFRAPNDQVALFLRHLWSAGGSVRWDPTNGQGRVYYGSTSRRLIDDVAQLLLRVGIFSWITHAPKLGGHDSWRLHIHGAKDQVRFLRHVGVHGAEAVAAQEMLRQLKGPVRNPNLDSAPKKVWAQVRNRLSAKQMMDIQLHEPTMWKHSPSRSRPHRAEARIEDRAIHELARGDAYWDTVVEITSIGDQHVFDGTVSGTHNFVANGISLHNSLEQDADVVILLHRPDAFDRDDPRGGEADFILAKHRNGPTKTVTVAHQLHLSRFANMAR

[2] = biological target: T2, Serine/threonine-protein phosphatase (Candida dubliniensis (strain CD36 / CBS 7987 / NCPF 3949 / NRRLY-17841) (Yeast), UniProt B9W6M3); experiment: blockers of CaCl2-induced CDRE-lacZ signaling – S. cerevisiae, luminescence, secondary, dose response (AID 2388); type: functional, cell-based;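 also: yeast reporter cells carrying a calcineurin-responsive lacZ construct stimulated with calcium chloride; luminescent beta-galactosidase reporter signal in whole cells rather than isolated phosphatase activity; potency for inhibition where a drop in reporter signal means calcineurin blockade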
T2 sequence (B9W6M3 whole entry): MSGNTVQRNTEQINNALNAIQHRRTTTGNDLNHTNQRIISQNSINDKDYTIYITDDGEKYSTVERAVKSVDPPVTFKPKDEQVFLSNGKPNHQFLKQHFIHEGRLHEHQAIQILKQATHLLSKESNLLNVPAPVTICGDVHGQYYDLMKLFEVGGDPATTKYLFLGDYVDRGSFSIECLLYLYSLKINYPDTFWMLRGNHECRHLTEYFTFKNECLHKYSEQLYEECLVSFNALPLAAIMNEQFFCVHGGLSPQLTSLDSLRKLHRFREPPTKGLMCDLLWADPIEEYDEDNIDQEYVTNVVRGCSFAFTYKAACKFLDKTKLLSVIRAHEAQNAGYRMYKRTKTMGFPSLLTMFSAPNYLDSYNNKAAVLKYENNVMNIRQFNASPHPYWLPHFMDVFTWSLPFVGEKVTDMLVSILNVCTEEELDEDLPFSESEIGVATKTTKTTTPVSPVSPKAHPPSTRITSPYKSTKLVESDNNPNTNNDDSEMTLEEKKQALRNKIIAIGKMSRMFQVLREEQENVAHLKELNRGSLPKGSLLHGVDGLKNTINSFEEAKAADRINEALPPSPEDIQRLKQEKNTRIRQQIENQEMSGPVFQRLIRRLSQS

Streptococcus = experiment: GAS UMAA2166 growth inhibition – luminescence, BacTiterGlo, counter-screen for streptokinase expression inhibitor project, dose response (AID 1915); type: functional, organism-based;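 also: potency for reduction of bacterial viability or growth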
[3] = biological target: T3, Sentrin-specific protease 8 (Homo sapiens, UniProt Q96LD8); type: functional;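 also: luminescence read-out of SENP8 inhibition, dose-response confirmation following an ultra-high-throughput screen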
T3 sequence (Q96LD8 whole entry): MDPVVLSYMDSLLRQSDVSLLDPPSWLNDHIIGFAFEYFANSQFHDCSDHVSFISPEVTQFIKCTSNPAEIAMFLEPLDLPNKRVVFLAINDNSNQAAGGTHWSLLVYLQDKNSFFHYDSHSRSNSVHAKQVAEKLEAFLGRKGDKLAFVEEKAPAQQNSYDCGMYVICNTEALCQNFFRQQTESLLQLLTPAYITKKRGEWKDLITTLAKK

[4] = biological target: Luciferin 4-monooxygenase (Photinus pyralis, UniProt P08659); experiment: Counter Screen for Luciferase-based Assay Positives. [Related pubchem assays: 620, 618, 411 ]
Chain of Luciferin 4-monooxygenase (P08659 whole entry): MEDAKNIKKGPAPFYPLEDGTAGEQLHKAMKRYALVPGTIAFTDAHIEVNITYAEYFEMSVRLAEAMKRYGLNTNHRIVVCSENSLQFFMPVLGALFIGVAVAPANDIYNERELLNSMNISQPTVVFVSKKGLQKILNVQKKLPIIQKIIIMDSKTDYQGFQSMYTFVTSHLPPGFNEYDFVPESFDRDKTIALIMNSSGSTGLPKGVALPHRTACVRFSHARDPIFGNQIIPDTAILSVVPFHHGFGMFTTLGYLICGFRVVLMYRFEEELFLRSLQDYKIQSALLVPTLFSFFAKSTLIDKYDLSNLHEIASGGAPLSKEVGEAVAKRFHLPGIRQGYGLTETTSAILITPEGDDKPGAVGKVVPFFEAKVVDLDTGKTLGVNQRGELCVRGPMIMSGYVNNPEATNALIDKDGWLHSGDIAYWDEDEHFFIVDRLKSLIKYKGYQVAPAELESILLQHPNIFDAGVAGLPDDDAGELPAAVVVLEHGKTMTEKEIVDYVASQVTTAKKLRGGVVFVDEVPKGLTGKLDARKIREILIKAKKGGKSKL

Aurora kinase B = Aurora kinase B (Homo sapiens, UniProt Q96GD4); type: functional
Chain of Aurora kinase B (Q96GD4 whole entry): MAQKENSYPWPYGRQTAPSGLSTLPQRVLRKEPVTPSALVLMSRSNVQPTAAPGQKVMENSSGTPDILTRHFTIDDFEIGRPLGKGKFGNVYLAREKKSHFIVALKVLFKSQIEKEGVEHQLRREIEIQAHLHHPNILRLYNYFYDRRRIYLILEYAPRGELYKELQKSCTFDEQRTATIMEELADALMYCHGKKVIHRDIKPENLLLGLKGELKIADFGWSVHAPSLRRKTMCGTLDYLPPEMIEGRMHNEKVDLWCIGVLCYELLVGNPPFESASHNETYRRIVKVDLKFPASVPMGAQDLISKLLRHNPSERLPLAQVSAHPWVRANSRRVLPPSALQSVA

Activated CDC42 kinase 1 = Activated CDC42 kinase 1 (Homo sapiens, UniProt Q07912); experiment: Navigating the Kinome. Panel member name: ACK1; type: functional
Chain of Activated CDC42 kinase 1 (Q07912 whole entry): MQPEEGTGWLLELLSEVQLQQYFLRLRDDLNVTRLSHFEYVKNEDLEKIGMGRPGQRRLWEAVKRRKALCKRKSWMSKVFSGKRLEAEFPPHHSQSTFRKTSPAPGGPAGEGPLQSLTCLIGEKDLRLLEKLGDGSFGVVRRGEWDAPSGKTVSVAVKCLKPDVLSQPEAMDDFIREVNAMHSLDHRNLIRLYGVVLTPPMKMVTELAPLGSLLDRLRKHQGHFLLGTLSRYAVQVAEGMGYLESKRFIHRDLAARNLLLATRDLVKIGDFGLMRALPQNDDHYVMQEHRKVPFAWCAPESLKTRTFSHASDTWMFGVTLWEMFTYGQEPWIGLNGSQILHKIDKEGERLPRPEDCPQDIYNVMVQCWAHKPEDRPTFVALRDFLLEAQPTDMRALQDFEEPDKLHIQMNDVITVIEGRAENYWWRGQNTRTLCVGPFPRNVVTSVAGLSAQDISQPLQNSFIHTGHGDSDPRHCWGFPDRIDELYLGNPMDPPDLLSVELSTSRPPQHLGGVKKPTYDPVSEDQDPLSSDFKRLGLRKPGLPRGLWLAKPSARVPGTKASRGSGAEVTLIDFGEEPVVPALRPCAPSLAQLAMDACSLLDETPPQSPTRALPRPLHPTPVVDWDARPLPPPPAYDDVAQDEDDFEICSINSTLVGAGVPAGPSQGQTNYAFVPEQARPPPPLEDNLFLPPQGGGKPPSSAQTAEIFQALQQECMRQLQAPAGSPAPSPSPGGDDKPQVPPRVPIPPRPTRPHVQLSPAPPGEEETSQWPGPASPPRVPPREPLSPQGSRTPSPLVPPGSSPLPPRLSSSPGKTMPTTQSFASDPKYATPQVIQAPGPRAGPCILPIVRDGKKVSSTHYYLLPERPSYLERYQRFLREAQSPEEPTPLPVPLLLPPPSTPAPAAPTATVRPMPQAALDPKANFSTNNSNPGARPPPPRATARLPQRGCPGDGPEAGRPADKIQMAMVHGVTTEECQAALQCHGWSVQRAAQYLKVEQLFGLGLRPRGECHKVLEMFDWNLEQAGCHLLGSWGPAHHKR

[5] = biological target: Death-associated protein kinase 3 (Homo sapiens, UniProt O43293); type: functional;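 also: measured as one member of a kinome-wide profiling panel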
Activin receptor type-1 = Activin receptor type-1 (Homo sapiens, UniProt Q04771); experiment: Navigating the Kinome. Panel member name: ACVR1; type: functional
Chain of Activin receptor type-1 (Q04771 whole entry, the tested form may be a part): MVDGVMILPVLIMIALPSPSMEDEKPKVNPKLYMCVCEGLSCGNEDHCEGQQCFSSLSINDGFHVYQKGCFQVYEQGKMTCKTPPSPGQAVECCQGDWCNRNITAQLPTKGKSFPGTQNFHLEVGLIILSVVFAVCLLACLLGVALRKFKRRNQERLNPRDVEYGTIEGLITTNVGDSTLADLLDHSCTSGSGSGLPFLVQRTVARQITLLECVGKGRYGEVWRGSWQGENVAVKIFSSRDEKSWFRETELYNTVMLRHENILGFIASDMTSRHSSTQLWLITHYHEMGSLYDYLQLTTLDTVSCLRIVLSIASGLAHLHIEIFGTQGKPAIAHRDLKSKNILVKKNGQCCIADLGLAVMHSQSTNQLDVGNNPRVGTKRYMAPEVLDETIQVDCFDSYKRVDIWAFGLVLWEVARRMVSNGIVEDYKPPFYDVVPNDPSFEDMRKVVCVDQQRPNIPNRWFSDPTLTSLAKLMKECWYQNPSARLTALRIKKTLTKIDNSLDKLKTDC

LIM domain kinase 1 = LIM domain kinase 1 (Homo sapiens, UniProt P53667); experiment: Navigating the Kinome. Panel member name: LIMK1; type: functional
Chain of LIM domain kinase 1 (P53667 whole entry, the tested form may be a part): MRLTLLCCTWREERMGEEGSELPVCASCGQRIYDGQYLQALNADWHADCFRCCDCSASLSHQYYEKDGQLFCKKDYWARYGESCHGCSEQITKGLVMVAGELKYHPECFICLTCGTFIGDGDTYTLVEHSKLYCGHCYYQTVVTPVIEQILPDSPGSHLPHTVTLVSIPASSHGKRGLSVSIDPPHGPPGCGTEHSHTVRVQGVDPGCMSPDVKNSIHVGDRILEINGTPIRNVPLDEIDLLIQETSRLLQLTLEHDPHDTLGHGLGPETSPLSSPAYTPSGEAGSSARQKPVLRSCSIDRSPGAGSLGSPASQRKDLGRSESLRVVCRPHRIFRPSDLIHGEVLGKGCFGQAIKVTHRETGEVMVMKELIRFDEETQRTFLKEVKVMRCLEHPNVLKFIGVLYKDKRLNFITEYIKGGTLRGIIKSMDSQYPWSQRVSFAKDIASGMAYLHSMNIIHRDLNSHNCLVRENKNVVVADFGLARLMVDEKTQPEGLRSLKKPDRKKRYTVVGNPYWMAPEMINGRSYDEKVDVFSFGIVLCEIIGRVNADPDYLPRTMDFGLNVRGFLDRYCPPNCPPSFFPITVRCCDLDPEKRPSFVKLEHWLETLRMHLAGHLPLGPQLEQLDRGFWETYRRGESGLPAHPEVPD

[6] = biological target: cAMP-dependent protein kinase catalytic subunit PRKX (Homo sapiens, UniProt P51817); type: functional
[7] = biological target: Mitogen-activated protein kinase kinase kinase kinase 2 (Homo sapiens, UniProt Q12851); type: functional;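 also: measured as one member of a kinome-wide kinase panel, with MAP4K2 as the panel entry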
Chain of Mitogen-activated protein kinase kinase kinase kinase 2 (Q12851 whole entry, canonical isoform): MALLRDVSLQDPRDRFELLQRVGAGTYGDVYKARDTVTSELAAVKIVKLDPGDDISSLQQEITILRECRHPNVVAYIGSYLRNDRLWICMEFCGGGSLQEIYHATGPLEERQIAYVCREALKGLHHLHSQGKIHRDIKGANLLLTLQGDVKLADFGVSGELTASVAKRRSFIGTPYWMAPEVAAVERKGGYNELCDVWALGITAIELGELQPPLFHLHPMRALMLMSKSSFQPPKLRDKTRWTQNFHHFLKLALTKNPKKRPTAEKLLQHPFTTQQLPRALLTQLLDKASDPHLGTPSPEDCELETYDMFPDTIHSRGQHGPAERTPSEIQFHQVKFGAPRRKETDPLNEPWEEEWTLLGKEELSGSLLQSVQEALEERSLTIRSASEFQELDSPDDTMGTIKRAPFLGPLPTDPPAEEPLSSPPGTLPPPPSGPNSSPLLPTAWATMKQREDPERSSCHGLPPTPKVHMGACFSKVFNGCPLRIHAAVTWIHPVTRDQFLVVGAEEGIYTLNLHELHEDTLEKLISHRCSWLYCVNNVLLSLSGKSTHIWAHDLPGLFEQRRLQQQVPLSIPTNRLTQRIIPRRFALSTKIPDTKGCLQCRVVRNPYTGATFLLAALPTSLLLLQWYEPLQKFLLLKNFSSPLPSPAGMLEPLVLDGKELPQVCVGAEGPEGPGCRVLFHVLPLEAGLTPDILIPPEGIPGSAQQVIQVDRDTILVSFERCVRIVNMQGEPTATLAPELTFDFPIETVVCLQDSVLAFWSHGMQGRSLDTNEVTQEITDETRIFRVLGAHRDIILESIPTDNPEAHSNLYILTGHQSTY

[8] = biological target: Casein kinase I isoform alpha (Homo sapiens, UniProt P48729); type: functional
Chain of Casein kinase I isoform alpha (P48729 whole entry, canonical isoform): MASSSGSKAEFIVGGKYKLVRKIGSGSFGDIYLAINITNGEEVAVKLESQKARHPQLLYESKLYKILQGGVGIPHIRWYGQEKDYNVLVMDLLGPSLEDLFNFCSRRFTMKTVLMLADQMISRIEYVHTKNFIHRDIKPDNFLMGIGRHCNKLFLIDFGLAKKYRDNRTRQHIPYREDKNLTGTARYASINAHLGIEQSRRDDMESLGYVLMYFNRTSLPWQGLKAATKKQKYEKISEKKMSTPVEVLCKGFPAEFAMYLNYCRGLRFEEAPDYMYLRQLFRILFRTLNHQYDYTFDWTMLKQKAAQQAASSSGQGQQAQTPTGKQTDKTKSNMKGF

[9] = biological target: Dual specificity protein kinase CLK2 (Homo sapiens, UniProt P49760); type: functional
[10] = biological target: Serine/threonine-protein kinase Chk1 (Homo sapiens, UniProt O14757); type: functional;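 also: measured as one member of a kinome-wide kinase profiling panel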
Chain of Serine/threonine-protein kinase Chk1 (O14757 whole entry): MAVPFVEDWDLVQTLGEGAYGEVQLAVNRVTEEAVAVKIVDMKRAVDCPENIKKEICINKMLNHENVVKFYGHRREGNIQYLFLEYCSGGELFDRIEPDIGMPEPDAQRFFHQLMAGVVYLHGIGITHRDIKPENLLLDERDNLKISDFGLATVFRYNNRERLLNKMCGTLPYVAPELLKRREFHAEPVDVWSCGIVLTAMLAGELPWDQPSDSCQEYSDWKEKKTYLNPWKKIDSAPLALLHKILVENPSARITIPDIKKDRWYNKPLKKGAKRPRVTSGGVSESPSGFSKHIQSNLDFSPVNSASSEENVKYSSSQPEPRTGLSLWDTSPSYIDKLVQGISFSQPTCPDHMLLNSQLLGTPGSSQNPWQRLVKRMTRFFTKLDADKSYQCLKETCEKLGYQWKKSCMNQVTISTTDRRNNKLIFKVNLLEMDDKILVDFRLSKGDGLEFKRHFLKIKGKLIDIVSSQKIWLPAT

CN1CCN(C(c2ccc(C(F)(F)F)cc2)c2cc(Cl)c3cccnc3c2O)CC1 (stereo not given)
inactive: EC50 [2] > 180 µM
active: AC50 [1] 11.9 µM | EC50 (Streptococcus) 6.51 µM

NC(=O)c1c(NC(=O)c2cc3ccccc3o2)sc2c1CCC2
active: IC50 [3] 12.4 µM | EC50 [4] 1.7 µM

O=C(NC(CCO)c1ccccc1)c1ccc(-c2ccncc2)cc1 (stereo not given)
active: Ki [6] 0.316 µM
inactive: Ki (Aurora kinase B) > 3.98 µM | Ki (Activated CDC42 kinase 1) > 3.98 µM | Ki [5] > 5.01 µM | Ki (Activin receptor type-1) > 3.98 µM | Ki (LIM domain kinase 1) > 3.16 µM | Ki [7] > 2.51 µM | Ki [8] > 3.98 µM | Ki [9] > 3.98 µM | Ki [10] > 3.16 µM
